Measurements published in US20020026053A1, “Novel 3-(substituted) -2- indolinones compounds and use thereof as inhibitors of protein kinase activity” (priority 1997, published 2002).

System: FLK-1 receptor
Test: FLK-1 Assay (cellular/catalytic ELISA, VEGF-stimulated phosphotyrosine)
Type: cell-based
Set-up: concentration or dose not given beside the values
Settings: protocol P.110
Summary of the method: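 Receptor phosphotyrosine ELISA: Flk-1-expressing NIH3T3 C7#3 cells, starved overnight in 0.1% FBS medium, received compound (1:200 final dilution, 0.5% DMSO) for 2 h at 37 °C, then VEGF. Anti-FLK-1-captured receptor was probed with anti-phosphotyrosine UB40 and peroxidase/ABTS read-out, relative to cells without compound.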

| Structure (SMILES) | Flk Kinase % Inhibition (P.110) |
| --- | --- |
| O=C1Nc2ccc(S(=O)(=O)Nc3ccc(C(F)(F)F)cc3)cc2C1=Cc1ccc(Oc2ccccc2)cc1 [10737/E09] | 11.9% |
| CC(C)(C)c1ccc(Oc2cccc(C=C3C(=O)Nc4ccc(S(=O)(=O)Nc5ccc(C(F)(F)F)cc5)cc43)c2)cc1 [10737/E10] | 18.9% |
| O=C1Nc2ccc(S(=O)(=O)Nc3ccc(C(F)(F)F)cc3)cc2C1=Cc1cccc(Oc2cccc(C(F)(F)F)c2)c1 [10737/E11] | 18.3% |
| CCOc1ccc(C=C2C(=O)Nc3ccc(S(=O)(=O)N4CCOCC4)cc32)cc1 [10737/F02] | 15.1% |
| Cc1ccc(C=C2C(=O)Nc3ccc(S(=O)(=O)N4CCOCC4)cc32)c(C)c1 [10737/F03] | 16.3% |
| O=C1Nc2ccc(S(=O)(=O)N3CCOCC3)cc2C1=Cc1cc(F)ccc1F [10737/F04] | 12.2% |
| O=C1Nc2ccc(S(=O)(=O)N3CCOCC3)cc2C1=Cc1cccc(F)c1F [10737/F05] | 18.4% |
| COc1ccc(C=C2C(=O)Nc3ccc(S(=O)(=O)N4CCOCC4)cc32)cc1F [10737/F06] | 12.3% |
| Cc1ccc(C)c(C=C2C(=O)Nc3ccc(S(=O)(=O)N4CCOCC4)cc32)c1 [10737/F07] | 19.1% |
| O=C1Nc2ccc(S(=O)(=O)N3CCOCC3)cc2C1=Cc1ccc2ccccc2c1 [10737/F08] | 20.7% |
| O=C1Nc2ccc(S(=O)(=O)N3CCOCC3)cc2C1=Cc1ccc(Oc2ccccc2)cc1 [10737/F09] | 15.4% |
| CC(C)(C)c1ccc(Oc2cccc(C=C3C(=O)Nc4ccc(S(=O)(=O)N5CCOCC5)cc43)c2)cc1 [10737/F10] | 26.1% |
| O=C1Nc2ccc(S(=O)(=O)N3CCOCC3)cc2C1=Cc1cccc(Oc2cccc(C(F)(F)F)c2)c1 [10737/F11] | 31.6% |
| CCOc1ccc(C=C2C(=O)Nc3ccc(CCCl)cc32)cc1 [10737/G02] | 8.7% |
| Cc1ccc(C=C2C(=O)Nc3ccc(CCCl)cc32)c(C)c1 [10737/G03] | 13.6% |
| O=C1Nc2ccc(CCCl)cc2C1=Cc1cc(F)ccc1F [10737/G04] | 12.1% |
| O=C1Nc2ccc(CCCl)cc2C1=Cc1cccc(F)c1F [10737/G05] | 16.4% |
| COc1ccc(C=C2C(=O)Nc3ccc(CCCl)cc32)cc1F [10737/G06] | 12.8% |
| Cc1ccc(C)c(C=C2C(=O)Nc3ccc(CCCl)cc32)c1 [10737/G07] | 20.3% |
| O=C1Nc2ccc(CCCl)cc2C1=Cc1ccc2ccccc2c1 [10737/G08] | 16.4% |
| O=C1Nc2ccc(CCCl)cc2C1=Cc1ccc(Oc2ccccc2)cc1 [10737/G09] | 15.2% |
| CC(C)(C)c1ccc(Oc2cccc(C=C3C(=O)Nc4ccc(CCCl)cc43)c2)cc1 [10737/G10] | 13.3% |
| O=C1Nc2ccc(CCCl)cc2C1=Cc1cccc(Oc2cccc(C(F)(F)F)c2)c1 [10737/G11] | 11.7% |
| CCOc1ccc(C=C2C(=O)Nc3c(Br)cc(Br)c(C)c32)cc1 [10737/H02] | 3.1% |
| Cc1ccc(C=C2C(=O)Nc3c(Br)cc(Br)c(C)c32)c(C)c1 [10737/H03] | 3.2% |
| Cc1c(Br)cc(Br)c2c1C(=Cc1cc(F)ccc1F)C(=O)N2 [10737/H04] | 11.6% |
| Cc1c(Br)cc(Br)c2c1C(=Cc1cccc(F)c1F)C(=O)N2 [10737/H05] | 9.9% |
| COc1ccc(C=C2C(=O)Nc3c(Br)cc(Br)c(C)c32)cc1F [10737/H06] | 5.8% |
